{
  "source": "patent US7498352B2",
  "about": "“TGF-β superfamily production/secretion promoter” (Takeda Pharmaceutical Company Limited, priority 2001, dated 2009)",
  "key": {"GDNF": {"test_system": "GDNF", "test": "GDNF content of sciatic nerve of KKAy mice fed compound, measured by ELISA", "assay_type": "in vivo, mouse", "settings": "17 week-old female KKAy mice, powder feed containing 0.01% of compound for 7 weeks", "procedure": "17 week-old female KKAy mice (n=10-12) were maintained for 7 weeks on a powder feed (CRF-1, manufactured by Oriental Yeast Co., Ltd.) containing 0.01% of compound (5). Then, sciatic nerve of the mouse was taken and stored at −80° C., until use for the measurement (ca. 10 months).\nThe stored sciatic nerve was ultrasonicated in a 20-fold volume of a homogenized buffer (0.1 M tris hydrochloride buffer containing 1M sodium chloride, 2% BSA, 2 mM EDTA, 80 trypsin unit/L of aprotinin, 0.02% sodium azide, pH 7.6) and insoluble materials were separated by centrifugation (15,000 rpm, 30 min). The GDNF content of the supernatant was measured by the following ELISA method.\nThus, an anti-hGDNF goat antibody (100 μg/ml) (Genzyme-Techne) was distributed in 10-μl portions in the wells of 96-well round bottom plates and antibody adsorption was allowed to proceed by 2 hours incubation at room temperature. After removing the antibody, each well was washed three times with a washing solution. […] After washing, 30 μl of 4-methylumbelliferyl-β-D-galactoside (produced by Sigma) (10 μg/ml) was added to the substrate, the reaction was allowed to proceed at room temperature for 4 hours and then terminated by addition of 130 μl of 0.1 M glycine-sodium hydroxide buffer (pH 10.3), and the fluorescent intensity of the 4-methylumbelliferone produced was determined (Ex: 360 nm; Em: 450 nm). […]"}, "GDF-15": {"test_system": "GDF-15", "test": "GDF-15 expression in dorsal root ganglion of STZ diabetic neuropathy rats, real time quantitative RT-PCR", "assay_type": "in vivo, rat", "settings": "STZ (70 mg/kg) male SD rats, 10 mg/kg body weight/day orally for 4 months", "procedure": "Streptozotocin (STZ) was administered to 6-week-old male SD rats (n=5-8) at 70 mg/kg to prepare diabetic neuropathy models. Starting from 4 months of the STZ administration, compound (5) was orally administered to the rats for 4 months at the dose of 10 mg/kg body weight/day. Then, dorsal root ganglion of the rats was removed, treated with ISOGEN solution (NIPPON GENE CO., LTD.) and the total RNA was extracted.\nUsing the obtained total RNA, a primer depicted in 5′-ACTGCATGCCAACCAGAGC-3′ (SEQ ID:1) and a primer depicted in 5′-[…]-3′ (SEQ ID:2), which were prepared based on the reported mRNA sequence of GDF-15, and a fluorescent probe having a GDF-15 specific sequence, […] (SEQ ID:3), and acidic ribosomal phosphoprotein PO as an endogenous control, a real time quantitative RT-PCR (Applied Biosystems) was performed."}, "left sciatic nerve": {"test_system": "left sciatic nerve", "test": "Maximum distance of nerve extension (evoked potential) after sciatic nerve transection in STZ diabetic neuropathy rats", "assay_type": "in vivo, rat", "settings": "left sciatic nerve transected, 10 mg/kg body weight/day orally for 5 weeks", "procedure": "Streptozotocin (STZ, 70 mg/kg) was intravenously injected to 6-week-old male SD rats (n=9-10) to prepare diabetic neuropathy models. After 2 weeks of the STZ administration, the left sciatic nerve of the rats was transected under anesthesia, and compound (5) was orally administered at the dose of 10 mg/kg body weight/day for 5 weeks. After the completion of the administration, the rats were anesthetized, and the distance (maximum distance of extension) from the nerve transection site to the detectable site was measured for evoked potential using a device detecting evoked potential [Neuropack 2, manufactured by NIHON KOHDEN CORPORATION]. As a result, the maximum extension of the compound (5) administration group was extended by 2.4 times as compared to that of the compound (5) non-administration group (control group)."}},
  "data": [
    {"smiles": "Cc1ccccc1OCCCc1oc(-n2ccnc2C)nc1-c1ccc(Cl)cc1", "note": "[compound (5), 4-(4-chlorophenyl)-2-(2-methyl-1-imidazolyl)-5-[3-(2-methylphenoxy)propyl]oxazole]", "values": [
      {"measurement": "increase of GDNF content in the sciatic nerve as compared to the control group", "setting": "GDNF", "value": 87.9, "unit": "%"},
      {"measurement": "increase of GDF-15 expression level as compared to non-administration group (control group)", "setting": "GDF-15", "value": 135, "unit": "%"},
      {"measurement": "maximum extension (distance from nerve transection site to site with detectable evoked potential) relative to control group", "setting": "left sciatic nerve; STZ (70 mg/kg i.v.) male SD rats", "value": 2.4, "unit": "times"},
      {"measurement": "effect of neuroneogenesis and of restoring nerve function", "setting": "left sciatic nerve; STZ male SD rats", "value": "an effect of neuroneogenesis and an effect of restoring nerve function were observed"}
    ]}
  ]
}
